Like-named read-outs stand apart in the source and are kept apart here.
Columns and labels:
Top II = experiment: Affinity ultrafiltration HPLC-MS/MS (AUF-HPLC-MS/MS) of WE-P with Top II; conditions: relative binding strength = Aactive/Asample × 100%; peak in WE-P; n = 3
Method: (§1) The relative binding strength (RBS) was employed to compare the variation of the correlated peak areas in the AUF-HPLC-UV chromatograms before and after incubation with enzymes to evaluate the affinity binding abilities between potential ligands and target enzymes. The RBS formula is expressed as: RBS = (Aactive/Asample) × 100%, where the Aactive represents the peak areas obtained from the WE-P samples incubated with COX-2, 5-LOX, Top I or Top II, respectively; the Asample represents the peak areas obtained from WE-P samples without ultrafiltration. […] Namely, the special binding capacities of peak 2 with COX-2, 5-LOX, Top I and Top II might be stronger than that of peak 1. […] Therefore, it could be preliminarily estimated that peak 1 and peak 2 were the main bioactive components in WE-P which were closely related to its anti-inflammatory and anti-proliferative activities. These compounds were then identified based on their MS/MS data, related references and NMR or UPLC-QTOF-MS/MS data of isolated compounds, and the results are shown in Table 2.
(§2) Affinity ultrafiltration screening was slightly modified and carried out according to some previous studies. Firstly, approximately 100 µL of WE-P (10.0 mg/mL) were incubated with 10 µL of enzymes (2 U, COX-2, 5-LOX, Top I or Top II), and 90 µL of Tris-HCl (pH = 7.8) at 37 °C in the darkness for 1 h. […]

COX-2 [1] = target: T1, COX-2 (Homo sapiens, UniProt P35354); experiment: Affinity ultrafiltration HPLC-MS/MS (AUF-HPLC-MS/MS) of WE-P with COX-2; design: purchased Wuhan Antgene Biotechnology Co., Ltd. (Wuhan, China); conditions: relative binding strength = Aactive/Asample × 100%; peak in WE-P; n = 3
T1 sequence (P35354 18-604): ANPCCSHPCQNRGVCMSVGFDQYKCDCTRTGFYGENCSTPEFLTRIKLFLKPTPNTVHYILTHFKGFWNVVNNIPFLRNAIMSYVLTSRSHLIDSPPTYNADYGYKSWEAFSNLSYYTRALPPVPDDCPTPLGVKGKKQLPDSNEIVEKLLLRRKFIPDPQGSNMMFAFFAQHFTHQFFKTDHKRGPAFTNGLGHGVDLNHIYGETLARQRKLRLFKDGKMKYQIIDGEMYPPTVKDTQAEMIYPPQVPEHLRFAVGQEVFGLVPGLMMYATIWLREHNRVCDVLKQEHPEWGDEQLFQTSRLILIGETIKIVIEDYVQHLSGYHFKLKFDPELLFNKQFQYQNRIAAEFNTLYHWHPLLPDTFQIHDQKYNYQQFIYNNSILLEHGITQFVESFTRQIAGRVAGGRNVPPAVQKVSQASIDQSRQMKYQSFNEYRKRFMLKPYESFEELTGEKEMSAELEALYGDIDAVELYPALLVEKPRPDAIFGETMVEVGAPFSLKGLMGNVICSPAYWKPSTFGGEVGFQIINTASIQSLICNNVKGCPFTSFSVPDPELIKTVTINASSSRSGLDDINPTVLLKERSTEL
Method: as §1, §2

COX-2 [2] = target: T1, COX-2; experiment: In vitro COX-2 inhibitory assay (COX-2 (human) inhibitor screening assay kit, fluorescence); type: biochemical; design: purchased Beyotime Biotechnology (Shanghai, China) S0168; conditions: triplicate; read-out: COX-2 inhibition IC50 (isolated compounds)
Method: Thirdly, 10 µL COX-2 probe was added into each well. […] The experiments were performed in triplicate.

A549 cells [3] = experiment: Cell proliferative assay (SRB), A549; type: cell-based; conditions: Homo sapiens, 48 h, read-out: Anti-proliferative IC50, A549 cells
Method: (§3) Human non-small cell lung adenocarcinoma cell line (A549) and human cervical cancer cell line (Hela) were obtained from the American Type Culture Collection (ATCC, Manassas, VA, USA) and maintained in Ham’s F-12K medium supplemented with 10% fetal bovine serum (FBS), 1% penicillin, and 1% streptomycin in a cell incubator under humidified conditions with 5% CO2 at 37 °C, and the procedures were slightly modified from previous method. To evaluate the proliferative activity of A549 cell line and Hela cell line, the SRB assay was carried out according to the manufacturer’s instructions (Beyotime, Shanghai, China). Briefly, these two cell lines were seeded into 96-well plates at a density of 1.0 × 10^4 per well. After 24 h incubation, the tested samples were dissolved in the DMSO and sequentially diluted with cell culture medium and added to each well at the specified concentrations. Cell viability was assessed by SRB 48 h later. Absorbances was measured by a Tecan microplate reader (Tecan Infinite M200 Pro, Tecan Group Ltd., Männedorf, Switzerland) at a wavelength of 540 nm. The experiments were performed in triplicate. The anti-proliferative activities were expressed as IC50. […] The data were expressed as mean ± standard deviation (SD) of three replicates.

5-LOX = target: T2, 5-LOX (Homo sapiens, UniProt P09917); experiment: Affinity ultrafiltration HPLC-MS/MS (AUF-HPLC-MS/MS) of WE-P with 5-LOX; conditions: relative binding strength = Aactive/Asample × 100%; peak in WE-P; n = 3
T2 construct: purchased Cayman Chemical Co., Ltd. (Ann Arbor, MI, USA)
T2 sequence (P09917 1-674): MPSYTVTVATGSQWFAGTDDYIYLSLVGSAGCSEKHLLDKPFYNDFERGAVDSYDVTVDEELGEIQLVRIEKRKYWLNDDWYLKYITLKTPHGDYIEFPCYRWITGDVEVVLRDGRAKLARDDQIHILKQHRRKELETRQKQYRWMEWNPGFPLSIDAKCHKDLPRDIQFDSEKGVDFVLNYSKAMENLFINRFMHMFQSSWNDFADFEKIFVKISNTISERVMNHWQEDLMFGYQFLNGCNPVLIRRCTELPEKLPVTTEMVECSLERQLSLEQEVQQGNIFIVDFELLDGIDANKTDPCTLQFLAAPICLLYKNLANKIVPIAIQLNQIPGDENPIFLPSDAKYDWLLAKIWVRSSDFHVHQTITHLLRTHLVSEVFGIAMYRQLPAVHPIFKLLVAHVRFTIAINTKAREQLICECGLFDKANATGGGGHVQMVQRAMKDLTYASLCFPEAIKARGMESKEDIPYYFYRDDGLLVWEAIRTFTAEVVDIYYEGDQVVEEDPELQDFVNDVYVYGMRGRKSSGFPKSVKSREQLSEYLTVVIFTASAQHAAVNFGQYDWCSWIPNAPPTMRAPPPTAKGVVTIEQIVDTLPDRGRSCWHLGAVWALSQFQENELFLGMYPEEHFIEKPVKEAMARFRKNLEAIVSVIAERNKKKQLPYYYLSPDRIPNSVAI
Method: as §1, §2

Hela cells [4] = experiment: Cell proliferative assay (SRB), Hela; type: cell-based; conditions: Homo sapiens, 48 h, read-out: Anti-proliferative IC50, Hela cells
Method: as §3

Top I = experiment: Affinity ultrafiltration HPLC-MS/MS (AUF-HPLC-MS/MS) of WE-P with Top I; conditions: relative binding strength = Aactive/Asample × 100%; peak in WE-P; n = 3
Method: as §1, §2

MCF-7 = system: MCF-7; design: method as in PMID 27504537; conditions: 72 h; read-out: GI50 (the 50% growth inhibition in 72 h), MCF-7; cited from earlier work
[5] = system: LNCaP human prostate cancer cell; design: method as in PMID 11858758; conditions: previous study; cited from earlier work
[6] = system: human colorectal adenocarcinoma (Caco-2) cells; design: method as in PMID 27504537; conditions: inactive or poorly active; cited from earlier work
[7] = system: human mammary adenocarcinoma (MCF-7) cells; design: method as in PMID 33301798; conditions: previous study; read-out: Anti-proliferative IC50, MCF-7 cells; cited from earlier work
[8] = system: human prostate cancer (PC-3) cells; design: method as in PMID 27504537; conditions: 72 h; read-out: GI50 (the 50% growth inhibition in 72 h), PC-3; cited from earlier work
RAW 264.7 cell line = system: RAW 264.7 cell line; design: method as in doi:10.1016/j.phytol.2019.01.020; conditions: LPS-stimulated RAW 264.7; read-out: Inhibition of NO production IC50; cited from earlier work
Hela cells [9] = system: Hela cells; design: method as in PMID 33301798; conditions: previous study; read-out: Anti-proliferative IC50, Hela cells; cited from earlier work
A549 cells [10] = system: A549 cells; design: method as in PMID 33301798; conditions: previous study; read-out: Anti-proliferative IC50, A549 cells; cited from earlier work
Hela cell line = system: Hela cell line; design: method as in PMID 32212861; conditions: previous study; cited from earlier work
[11] = system: human peripheral blood mononuclear cells (PBMCs) stimulated by lipopolysaccharide (LPS); design: method as in PMID 32877711; conditions: 100 µM; cited from earlier work

## COc1cc(C2Oc3c(OC)cc(/C=C\C(=O)NCCc4ccc(O)cc4)cc3C2C(=O)NCCc2ccc(O)cc2)ccc1O (stereo not drawn) [Compound 1, N-cis-grossamide]
Top II
  UF-RBS (%) Top II: 24.53 ± 1.54%
COX-2 [1]
  UF-RBS (%) COX-2: 20.15 ± 0.12%
COX-2 [2]
  IC50: 4.41 ± 0.249 µM
A549 cells [3]
  IC50: > 100 µM
5-LOX
  UF-RBS (%) 5-LOX: 16.74 ± 0.65%
Hela cells [4]
  IC50: 84.4 ± 1.79 µM
Top I
  UF-RBS (%) Top I: 34.25 ± 2.81%

## COc1cc(C2Oc3c(OC)cc(/C=C/C(=O)NCCc4ccc(O)cc4)cc3C2C(=O)NCCc2ccc(O)cc2)ccc1O (stereo not drawn) [Compound 2, N-trans-grossamide]
Top II
  UF-RBS (%) Top II: 58.57 ± 3.82%
MCF-7
  GI50: 24 µM
[5]
  Cytotoxicity in cultured LNCaP cells: moderate cytotoxicity
[6]
  GI50: > 100 µM
[7]
  IC50: 11.4 ± 1.62 µM
COX-2 [1]
  UF-RBS (%) COX-2: 27.39 ± 1.58%
COX-2 [2]
  IC50: 1.95 ± 0.381 µM
[8]
  GI50: 21 µM
RAW 264.7 cell line
  IC50: 52.5 ± 6.1 µM
Hela cells [9]
  IC50: 20.1 ± 3.05 µM
A549 cells [10]
  IC50: 13.5 ± 3.66 µM
A549 cells [3]
  IC50: > 100 µM
Hela cell line
  Anti-proliferative activity on Hela cell line: moderate anti-proliferative activity
5-LOX
  UF-RBS (%) 5-LOX: 42.00 ± 1.26%
Hela cells [4]
  IC50: 72.8 ± 0.839 µM
[11]
  Release of GM-CSF: 1.61 % of LPS control
  Release of IL-1β: 2.14 % of LPS control
  Release of IL-2: 11.61 % of LPS control
  Release of TNF-α: 0.06 % of LPS control
Top I
  UF-RBS (%) Top I: 76.2 ± 5.20%

— article PMC8065987, “Identification of Anti-Inflammatory and Anti-Proliferative Neolignanamides from Warburgia ugandensis Employing Multi-Target Affinity Ultrafiltration and LC-MS” (Pharmaceuticals, 2021)
